Results taken from paper PMC13181795, “Structural Basis for BD1-Preferring 2,4-Disubstituted Pyrimidine BRDT Inhibitors” (Journal of Medicinal Chemistry, 2026).

Assay: Metabolic stability in male mouse liver microsomes
Type: in vitro ADME

O=C(O)Cc1ccccc1Nc1c(Cl)cccc1Cl [Diclofenac]
Scaled-up CLint: 130 mL/min/kg
